From patent US5541183A, “Ginkgolide derivatives” (priority 1993, dated 1996)
Where two headings read alike, the source gives them in different places.

Tested on: PAF-induced rabbit platelet aggregation
Experiment: PAF-induced rabbit platelet aggregation
Format: cell-based, rabbit (New Zealand white)
Details: Oryctolagus cuniculus, read-out: IC50, inhibition of PAF-induced rabbit platelet aggregation
Protocol: Pharmacology Example 1: PAF-induced rabbit platelet aggregation
Blood was collected from the ear artery of a male New Zealand white rabbit and mixed with 3.8% sodium citrate in a 9:1 volume ratio. Platelet rich plasma (PRP) was obtained by centrifugation of the blood at 150 g for 10 min at room temperature. The number of platelets was adjusted to 3×10^8 platelets/ml with platelet poor plasma. Platelet aggregation was monitored by continuous recording of light transmission in a dual-channel aggregometer (Chrono-Log 560-VS) coupled with a two channel recorder (Chrono-Log 707). Stirred PRP was treated with various concentrations of the test compounds or vehicle (0.5% DMSO) for 2 min and then PAF(5×10^-9 M) was added to induce platelet aggregation.
Inhibition values were calculated by comparing the extent of aggregation obtained in the presence of the vehicle alone (0.5% DMSO) and in the presence of a test compound. Log concentration-response curves were generated and the IC50 values were determined by regression analysis.
Table 1 lists results from this assay for inhibition of PAF-induced rabbit platelet aggregation for illustrative examples of the compounds of this invention.

IC50 (rabbit PRP, PAF 5×10^-9 M)	SMILES	IC50
68.8 nM	CC1C(=O)OC2C(O)C34C5CC(C(C)(C)C)C36C(OC(=O)C6OCc3ccccc3)OC4(C(=O)O5)C12O (stereo not drawn) [Example 1, 10-benzyloxy-Ginkgolide B]	
72.1 nM	CC1C(=O)OC2C(O)C34C5CC(C(C)(C)C)C36C(OC(=O)C6OCc3ccc(Cl)cc3Cl)OC4(C(=O)O5)C12O (stereo not drawn) [Example 2, 10-(2',4'-dichlorobenzyloxy)-Ginkgolide B]	
94.7 nM	CC1C(=O)OC2C(O)C34C5CC(C(C)(C)C)C36C(OC(=O)C6OCc3ccc(Cl)cc3)OC4(C(=O)O5)C12O (stereo not drawn) [Example 3, 10-(4'-chlorobenzyloxy)-Ginkgolide B]	
101 nM	CC1C(=O)OC2C(O)C34C5CC(C(C)(C)C)C36C(OC(=O)C6OCc3ccc(Cl)c(Cl)c3)OC4(C(=O)O5)C12O (stereo not drawn) [Example 11]	
85.8 nM	COc1ccc(COC2C(=O)OC3OC45C(=O)OC6CC(C(C)(C)C)C32C64C(O)C2OC(=O)C(C)C25O)cc1 (stereo not drawn) [Example 14, 10-(4'-methoxybenzyloxy)-Ginkgolide B]	
57.1 nM	CC1C(=O)OC2C(O)C34C5CC(C(C)(C)C)C36C(OC(=O)C6OCc3ccc(O)cc3)OC4(C(=O)O5)C12O (stereo not drawn) [Example 25]	
62.1 nM	Cc1cc(COC2C(=O)OC3OC45C(=O)OC6CC(C(C)(C)C)C32C64C(O)C2OC(=O)C(C)C25O)cc(C)c1O (stereo not drawn) [Example 27]	
37.1 nM	COc1cc(COC2C(=O)OC3OC45C(=O)OC6CC(C(C)(C)C)C32C64C(O)C2OC(=O)C(C)C25O)ccc1O (stereo not drawn) [Example 28]	
65.1 nM	COc1cc(COC2C(=O)OC3OC45C(=O)OC6CC(C(C)(C)C)C32C64C(O)C2OC(=O)C(C)C25O)cc(OC)c1O (stereo not drawn) [Example 32]	
101 nM	Cc1cc(COC2C(=O)OC3OC45C(=O)OC6CC(C(C)(C)C)C32C64C(O)C2OC(=O)C(C)C25O)cc(N)c1O (stereo not drawn) [Example 35]	
74.1 nM	Cc1ccccc1COC1C(=O)OC2OC34C(=O)OC5CC(C(C)(C)C)C21C53C(O)C1OC(=O)C(C)C14O (stereo not drawn) [Example 41, 10-(2'-methylbenzyloxy)-Ginkgolide B]	
46.7 nM	Cc1ccc(COC2C(=O)OC3OC45C(=O)OC6CC(C(C)(C)C)C32C64C(O)C2OC(=O)C(C)C25O)cc1 (stereo not drawn) [Example 43, 10-(4'-methylbenzyloxy)-Ginkgolide B]	
117 nM	CC1C(=O)OC2C(O)C34C5CC(C(C)(C)C)C36C(OC(=O)C6OCCc3ccccc3)OC4(C(=O)O5)C12O (stereo not drawn) [Example 79, 10-(2'-phenylethoxy)-Ginkgolide B]	
68 nM	CC1C(=O)OC2C(O)C34C5CC(C(C)(C)C)C36C(OC(=O)C6OCc3cccc(F)c3)OC4(C(=O)O5)C12O (stereo not drawn) [Example 84, 10-(3'-fluorobenzyloxy)-Ginkgolide B]	
32.1 nM	CC1C(=O)OC2C(O)C34C5CC(C(C)(C)C)C36C(OC(=O)C6OCc3ccc(F)cc3)OC4(C(=O)O5)C12O (stereo not drawn) [Example 85, 10-(4'-fluorobenzyloxy)-Ginkgolide B]	
93.1 nM	COc1cccc(COC2C(=O)OC3OC45C(=O)OC6CC(C(C)(C)C)C32C64C(O)C2OC(=O)C(C)C25O)c1 (stereo not drawn) [Example 91, 10-(3'-methoxybenzyloxy)-Ginkgolide B]	
102 nM	CC1C(=O)OC2C(OCc3ccc(Cl)cc3Cl)C34C5CC(C(C)(C)C)C36C(OC(=O)C6OCc3ccc(Cl)cc3Cl)OC4(C(=O)O5)C12O (stereo not drawn) [Example 92, 1,10-bis(2',4'-dichlorobenzyloxy)-Ginkgolide B]	
73.1 nM	CC1C(=O)OC2C(O)C34C5CC(C(C)(C)C)C36C(OC(=O)C6OCc3cccc(C(F)(F)F)c3)OC4(C(=O)O5)C12O (stereo not drawn) [Example 93, 10-(3'-trifiuoromethylbenzyloxy)-Ginkgolide B]	
121 nM	CC1C(=O)OC2C(O)C34C5CC(C(C)(C)C)C36C(OC(=O)C6OCc3ccc(C(F)(F)F)cc3)OC4(C(=O)O5)C12O (stereo not drawn) [Example 94, 10-(4'-trifluoromethylbenzyloxy)-Ginkgolide B]	
52.1 nM	CCCCc1ccc(COC2C(=O)OC3OC45C(=O)OC6CC(C(C)(C)C)C32C64C(O)C2OC(=O)C(C)C25O)nc1 (stereo not drawn) [Example 100, 10-(5-butyl-2-pyridinyl)-methoxy-Ginkgolide B]	
131 nM	CC1C(=O)OC2C(O)C34C5CC(C(C)(C)C)C36C(OC(=O)C6OCc3ccc6ccccc6n3)OC4(C(=O)O5)C12O (stereo not drawn) [Example 102, 10-(2-quinolinyl)-methoxy-Ginkgolide B]	

The next lines start with the compound.

SMILES	IC50 (rabbit PRP, PAF 5×10^-9 M)	IC50
CC1C(=O)OC2C(O)C34C5CC(C(C)(C)C)C36C(OC(=O)C6OCc3ccc(I)cc3)OC4(C(=O)O5)C12O (stereo not drawn) [Example 5]		50.1 nM
COc1cc(COC2C(=O)OC3OC45C(=O)OC6CC(C(C)(C)C)C32C64C(O)C2OC(=O)C(C)C25O)cc(OC)c1OC (stereo not drawn) [Example 15, 10-(3',4',5'-trimethoxybenzyloxy)-Ginkgolide B]	62.1 nM	
CC1C(=O)OC2C(O)C34C5CC(C(C)(C)C)C36C(OC(=O)C6OCc3ccc(OC(F)(F)F)cc3)OC4(C(=O)O5)C12O (stereo not drawn) [Example 24]		42.1 nM
CC1C(=O)OC2C(O)C34C5CC(C(C)(C)C)C36C(OC(=O)C6OCc3ccc(O)c(O)c3)OC4(C(=O)O5)C12O (stereo not drawn) [Example 30]		121 nM
CC1C(=O)OC2C(O)C34C5CC(C(C)(C)C)C36C(OC(=O)C6OCc3cc(C(C)(C)C)c(O)c(C(C)(C)C)c3)OC4(C(=O)O5)C12O (stereo not drawn) [Example 31]	78.1 nM	
Cc1ccccc1COC1C(=O)OC2OC34C(=O)OC5CC(C(C)(C)C)C21C53C(OCc1ccccc1C)C1OC(=O)C(C)C14O (stereo not drawn) [Example 42, 1,10-bis(2'-methylbenzyloxy)-Ginkgolide B]	44.3 nM	
CC1C(=O)OC2C(O)C34C5CC(C(C)(C)C)C36C(OC(=O)C6OCc3ccc([N+](=O)[O-])cc3)OC4(C(=O)O5)C12O (stereo not drawn) [Example 44]		83.1 nM
CC1C(=O)OC2C(O)C34C5CC(C(C)(C)C)C36C(OC(=O)C6OCc3cccc([N+](=O)[O-])c3)OC4(C(=O)O5)C12O (stereo not drawn) [Example 63]		62.7 nM
CC1C(=O)OC2C(O)C34C5CC(C(C)(C)C)C36C(OC(=O)C6OCc3ccc(N)cc3)OC4(C(=O)O5)C12O (stereo not drawn) [Example 75]		116 nM
CC1C(=O)OC2C(O)C34C5CC(C(C)(C)C)C36C(OC(=O)C6OCCCOc3ccccc3)OC4(C(=O)O5)C12O (stereo not drawn) [Example 78, 10-(3'-phenoxypropoxy)-Ginkgolide B]	159 nM	
COc1cc(C(=O)OC2C(=O)OC3OC45C(=O)OC6CC(C(C)(C)C)C32C64C(O)C2OC(=O)C(C)C25O)cc(OC)c1OC (stereo not drawn) [Example 80, 10-(3',4'.5'-trimethoxybenzoyloxy)-Ginkgolide B]	114 nM	
CC1C(=O)OC2C(O)C34C5CC(C(C)(C)C)C36C(OC(=O)C6OCc3ccc(-c6ccccc6)cc3)OC4(C(=O)O5)C12O (stereo not drawn) [Example 81, 10-(4'-phenylbenzyloxy)-Ginkgolide B]	52.1 nM	
CC1C(=O)OC2C(O)C34C5CC(C(C)(C)C)C36C(OC(=O)C6OCc3c(F)c(F)c(F)c(F)c3F)OC4(C(=O)O5)C12O (stereo not drawn) [Example 83, 10-(2',3',4',5',6'-pentafluorobenzyloxy)-Ginkgolide B]		71.7 nM
CC1C(=O)OC2C(O)C34C5CC(C(C)(C)C)C36C(OC(=O)C6OCc3ccc(F)cc3F)OC4(C(=O)O5)C12O (stereo not drawn) [Example 86, 10-(2',4'-difluorobenzyloxy)-Ginkgolide B]		50.1 nM
CC1C(=O)OC2C(O)C34C5CC(C(C)(C)C)C36C(OC(=O)C6OCc3ccccc3F)OC4(C(=O)O5)C12O (stereo not drawn) [Example 87, 10-(2'-fluorobenzyloxy)-Ginkgolide B]		107 nM
CC1C(=O)OC2C(O)C34C5CC(C(C)(C)C)C36C(OC(=O)C6OC(=O)c3ccccc3)OC4(C(=O)O5)C12O (stereo not drawn) [Example 88, 10-benzoyloxy-Ginkgolide B]		48.2 nM
CC1C(=O)OC2C(OC(=O)c3ccccc3)C34C5CC(C(C)(C)C)C36C(OC(=O)C6O)OC4(C(=O)O5)C12O (stereo not drawn) [Example 89, 1-benzoyloxy-Ginkgolide B]	62.1 nM	
CC1C(=O)OC2C(O)C34C5CC(C(C)(C)C)C36C(OC(=O)C6OS(=O)(=O)c3ccccc3)OC4(C(=O)O5)C12O (stereo not drawn) [Example 90, 10-benzenesulfonyloxy-Ginkgolide B]	82.1 nM	
CC1C(=O)OC2C(OCc3ccc(C(F)(F)F)cc3)C34C5CC(C(C)(C)C)C36C(OC(=O)C6OCc3ccc(C(F)(F)F)cc3)OC4(C(=O)O5)C12O (stereo not drawn) [Example 95]	87.1 nM	
Cc1cnc(COC2C(=O)OC3OC45C(=O)OC6CC(C(C)(C)C)C32C64C(O)C2OC(=O)C(C)C25O)c(C)c1[N+](=O)[O-] (stereo not drawn) [Example 98, 10-(3,5-dimethyl-4-nitro-2-pyridinyl)-methoxy-Ginkgolide B]	131 nM	
CC1C(=O)OC2C(O)C34C5CC(C(C)(C)C)C36C(OC(=O)C6OCCc3ccccn3)OC4(C(=O)O5)C12O (stereo not drawn) [Example 101, 10-(2-pyridinyl)-ethoxy-Ginkgolide B]		102 nM
Cc1cnc(COC2C(=O)OC3OC45C(=O)OC6CC(C(C)(C)C)C32C64C(O)C2OC(=O)C(C)C25O)c(C)c1NO (stereo not drawn) [Example 104, 10-(3,5-dimethyl-4-hydroxyamino-2-pyridinyl)-methoxy-Ginkgolide B]	110 nM	
Cc1cnc(COC2C(=O)OC3OC45C(=O)OC6CC(C(C)(C)C)C32C64C(O)C2OC(=O)C(C)C25O)c(C)c1NC(=O)c1ccccc1 (stereo not drawn) [Example 105, 10-(4-benzoylamino-3,5-dimethyl-2-pyridinyl)-methoxy-Ginkgolide B]	32.5 nM	
Cc1cnc(COC2C(=O)OC3OC45C(=O)OC6CC(C(C)(C)C)C32C64C(O)C2OC(=O)C(C)C25O)c(C)c1N(O)C(=O)c1ccccc1 (stereo not drawn) [Example 106, 10-(4-N-benzoyl-N-hydroxyamino-3,5-dimethyl-2-pyridinyl)-methoxy Ginkgolide B]	47.1 nM	
